# Test results published in ChEMBL document CHEMBL1156502, “Stabilized immune modulatory RNA compounds as agonists of Toll-like receptors 7 and 8” (Proc Natl Acad Sci U S A, 2007).
# Calls of active or inactive are those of the source. No cut-off for these calls is given here.
# Legend:
# PBMC [1] = test: Induction of IFNalpha secretion in human PBMC after 24 hrs by Luminex Multiplex assay; assay type: functional, cell-based
# PBMC [2] = test: Induction of IL10 secretion in human PBMC after 24 hrs by Luminex Multiplex assay; assay type: functional, cell-based
# PBMC [3] = test: Induction of IL2R secretion in human PBMC after 24 hrs by Luminex Multiplex assay; assay type: functional, cell-based
# Mus musculus [4] = test: Induction of cytokine secretion in C57BL/6 mouse plasma at 100 mg/kg, sc by Luminex Multiplex assay; assay type: functional, organism-based; parameters: dose 100 mg/kg
# PBMC [5] = test: Induction of IL1-beta secretion in human PBMC after 24 hrs by Luminex Multiplex assay; assay type: functional, cell-based
# Mus musculus [6] = test: Induction of IL12 secretion in sc dosed C57BL/6 mouse serum after 2 hrs by ELISA; assay type: functional, organism-based
# PBMC [7] = test: Induction of IL12 secretion in human PBMC after 24 hrs by Luminex Multiplex assay; assay type: functional, cell-based
# Mus musculus [8] = test: Induction of chemokine secretion in C57BL/6 mouse plasma at 100 mg/kg, sc by Luminex Multiplex assay; assay type: functional, organism-based; parameters: dose 100 mg/kg
# [9] = target: T1, Toll-like receptor 7 (Homo sapiens) (UniProt Q9NYK1); test: Activation of human TLR7 expressed in HEK293 cells assessed as increase in NF-kappaB activation at 100 ug/ml by SEAP assay; assay type: cell-based
# T1 sequence (whole entry): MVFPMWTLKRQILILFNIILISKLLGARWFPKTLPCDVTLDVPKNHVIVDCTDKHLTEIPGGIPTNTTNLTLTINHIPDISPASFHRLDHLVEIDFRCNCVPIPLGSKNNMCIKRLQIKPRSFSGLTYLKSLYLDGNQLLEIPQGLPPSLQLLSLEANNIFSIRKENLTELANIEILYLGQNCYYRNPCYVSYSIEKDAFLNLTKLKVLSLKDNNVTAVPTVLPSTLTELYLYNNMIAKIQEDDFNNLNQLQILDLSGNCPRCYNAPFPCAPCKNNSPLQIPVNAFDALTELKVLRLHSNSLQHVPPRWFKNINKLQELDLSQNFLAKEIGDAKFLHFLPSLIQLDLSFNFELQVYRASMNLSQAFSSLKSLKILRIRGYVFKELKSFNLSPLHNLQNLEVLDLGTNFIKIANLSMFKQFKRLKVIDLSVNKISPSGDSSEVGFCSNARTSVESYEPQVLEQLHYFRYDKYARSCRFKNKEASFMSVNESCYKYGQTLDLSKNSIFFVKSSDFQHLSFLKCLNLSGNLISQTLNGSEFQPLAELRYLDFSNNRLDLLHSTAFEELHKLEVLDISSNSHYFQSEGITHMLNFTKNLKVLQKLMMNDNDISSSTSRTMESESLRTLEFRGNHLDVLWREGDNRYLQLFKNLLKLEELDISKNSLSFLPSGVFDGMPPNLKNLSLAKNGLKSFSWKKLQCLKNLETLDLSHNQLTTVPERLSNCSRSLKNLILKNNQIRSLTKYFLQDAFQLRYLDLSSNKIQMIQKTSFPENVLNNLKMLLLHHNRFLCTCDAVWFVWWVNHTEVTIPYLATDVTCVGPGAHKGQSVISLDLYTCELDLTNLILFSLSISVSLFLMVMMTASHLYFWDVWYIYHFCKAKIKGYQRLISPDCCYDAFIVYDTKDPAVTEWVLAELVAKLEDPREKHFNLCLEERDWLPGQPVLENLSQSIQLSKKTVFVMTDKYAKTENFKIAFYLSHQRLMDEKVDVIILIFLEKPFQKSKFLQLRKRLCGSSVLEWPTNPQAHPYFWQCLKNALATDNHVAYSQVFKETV
# [10] = target: T2, Toll-like receptor 8 (Homo sapiens) (UniProt Q9NR97); test: Activation of human TLR8 expressed in HEK293 cells assessed as increase in NF-kappaB activation at 100 ug/ml by SEAP assay; assay type: cell-based
# T2 sequence (whole entry): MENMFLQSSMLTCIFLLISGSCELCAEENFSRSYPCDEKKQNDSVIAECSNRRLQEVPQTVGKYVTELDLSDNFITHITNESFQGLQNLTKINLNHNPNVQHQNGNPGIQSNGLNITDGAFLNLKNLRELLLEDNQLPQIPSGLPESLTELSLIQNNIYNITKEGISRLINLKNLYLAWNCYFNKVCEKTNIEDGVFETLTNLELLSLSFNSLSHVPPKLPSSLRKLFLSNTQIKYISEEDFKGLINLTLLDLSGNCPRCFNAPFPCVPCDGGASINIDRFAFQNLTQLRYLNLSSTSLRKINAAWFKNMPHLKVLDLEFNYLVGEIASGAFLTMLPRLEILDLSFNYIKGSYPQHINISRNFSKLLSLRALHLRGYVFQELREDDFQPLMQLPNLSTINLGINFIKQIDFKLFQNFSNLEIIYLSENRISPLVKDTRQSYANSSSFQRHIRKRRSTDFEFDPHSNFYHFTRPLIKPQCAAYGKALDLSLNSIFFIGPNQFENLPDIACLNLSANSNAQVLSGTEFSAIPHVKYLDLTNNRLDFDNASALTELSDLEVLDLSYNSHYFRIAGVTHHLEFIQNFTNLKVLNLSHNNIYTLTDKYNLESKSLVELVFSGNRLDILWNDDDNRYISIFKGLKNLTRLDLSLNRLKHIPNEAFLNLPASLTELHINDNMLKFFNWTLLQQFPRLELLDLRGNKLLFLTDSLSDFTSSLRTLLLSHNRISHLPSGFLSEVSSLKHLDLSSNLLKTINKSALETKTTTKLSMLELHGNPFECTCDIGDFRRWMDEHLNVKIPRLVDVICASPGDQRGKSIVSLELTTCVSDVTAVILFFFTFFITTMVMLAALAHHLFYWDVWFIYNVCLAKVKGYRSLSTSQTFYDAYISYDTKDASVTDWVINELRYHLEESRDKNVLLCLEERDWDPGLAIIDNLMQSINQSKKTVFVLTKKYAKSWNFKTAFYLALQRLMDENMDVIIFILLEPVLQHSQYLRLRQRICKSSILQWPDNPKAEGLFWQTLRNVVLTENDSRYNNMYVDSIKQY
# [11] = Stability in 1% human serum assessed as full length product after 10 mins; assay type: ADME, cell-free; conditions: read-out: Stability
# PBMC [12] = test: Induction of IFN-gamma secretion in human PBMC after 24 hrs by Luminex Multiplex assay; assay type: functional, cell-based
smiles,measurement,setting,value
Nc1ccn([C@@H]2O[C@H](COP(O)(=S)O[C@H]3[C@@H](O)[C@H](n4cnc5c(=O)[nH]c(N)nc54)O[C@@H]3COP(O)(=S)O[C@H]3[C@@H](O)[C@H](n4ccc(=O)[nH]c4=O)O[C@@H]3CO)[C@@H](OP(O)(=S)OC[C@H]3O[C@@H](n4ccc(=O)[nH]c4=O)[C@H](O)[C@@H]3OP(O)(=S)OC[C@H]3O[C@@H](n4cnc5c(=O)[nH]c(N)nc54)[C@H](O)[C@@H]3OP(O)(=S)OC[C@H]3O[C@@H](n4ccc(N)nc4=O)[C@H](O)[C@@H]3OP(O)(=S)OC[C@H]3O[C@@H](n4ccc(=O)[nH]c4=O)[C@H](O)[C@@H]3OP(O)(=S)OC[C@H]3O[C@@H](n4ccc(=O)[nH]c4=O)[C@H](O)[C@@H]3OP(O)(=S)OC[C@H]3O[C@@H](n4cnc5c(=O)[nH]c(N)nc54)[C@H](O)[C@@H]3OP(O)(=S)OC[C@H]3O[C@@H](n4ccc(=O)[nH]c4=O)[C@H](O)[C@@H]3OP(O)(=S)OC[C@H]3O[C@@H](n4cnc5c(=O)[nH]c(N)nc54)[C@H](O)[C@@H]3OP(O)(=S)OCC(O)COP(O)(=S)O[C@H]3[C@@H](O)[C@H](n4cnc5c(=O)[nH]c(N)nc54)O[C@@H]3COP(O)(=S)O[C@H]3[C@@H](O)[C@H](n4ccc(=O)[nH]c4=O)O[C@@H]3COP(O)(=S)O[C@H]3[C@@H](O)[C@H](n4cnc5c(=O)[nH]c(N)nc54)O[C@@H]3COP(O)(=S)O[C@H]3[C@@H](O)[C@H](n4ccc(=O)[nH]c4=O)O[C@@H]3COP(O)(=S)O[C@H]3[C@@H](O)[C@H](n4ccc(=O)[nH]c4=O)O[C@@H]3COP(O)(=S)O[C@H]3[C@@H](O)[C@H](n4ccc(N)nc4=O)O[C@@H]3COP(O)(=S)O[C@H]3[C@@H](O)[C@H](n4cnc5c(=O)[nH]c(N)nc54)O[C@@H]3COP(O)(=S)O[C@H]3[C@@H](O)[C@H](n4ccc(=O)[nH]c4=O)O[C@@H]3COP(O)(=S)O[C@H]3[C@@H](O)[C@H](n4ccc(N)nc4=O)O[C@@H]3COP(O)(=S)O[C@H]3[C@@H](O)[C@H](n4cnc5c(=O)[nH]c(N)nc54)O[C@@H]3COP(O)(=S)O[C@H]3[C@@H](O)[C@H](n4ccc(=O)[nH]c4=O)O[C@@H]3CO)[C@H]2O)c(=O)n1 (some centres not stated),Activity,PBMC [1],Dose-dependent effect
same,Activity,PBMC [2],Dose-dependent effect
same,Activity,PBMC [3],Dose-dependent effect
same,Activity,Mus musculus [4],inactive
same,Activity,PBMC [5],Dose-dependent effect
same,Activity,Mus musculus [6],inactive
same,Activity,PBMC [7],Dose-dependent effect
same,Activity,Mus musculus [8],inactive
same,Activity,[9],inactive
same,Activity,[10],Active
same,remaining at 10 min,[11],74%
same,Activity,PBMC [12],Dose-dependent effect
